This is an account of results in BindingDB's records for doi:10.1021/acs.jmedchem.7b00315 (St. John'S University, 2018).

A short description of the experiment: Inhibition of GP2b/3a in human platelet-rich plasma assessed as reduction in collagen-induced platelet aggregation preincubated for 1 min followed by collagen addition by aggregometric analysis.

For orientation: IC50 means the concentration that gives 50% inhibition. On to `CCOC(=O)CC1CCN(C(=O)C(C)(C)[C@H](CC)NC(=O)c2ccc(C(=N)N3CCSC3)cc2F)CC1`, for which the IC50 turned out to be 3100 nM. Regarding `CCOC(=O)CC1CCN(C(=O)C(C)(C)[C@@H](CC)NC(=O)c2ccc(C(=N)N3CCSC3)cc2F)CC1` [(1-{3-[2-Fluoro-4-(imino-thiazolidin-3-yl-methyl)-benzoylamino]-2,2-dimethyl-pentanoyl}-piperidin-4-yl)-acetic acid ethyl ester(NSL-96184)], the concentration for half-maximal inhibition (IC50) was 22 nM. `CCOC(=O)CC1CCN(C(=O)CC(CC)NC(=O)c2ccc(C(=N)N3CCSC3)cc2F)CC1` (stereo not drawn): the half-maximal inhibitory concentration (IC50) came out at 50 nM.
